# Results reported in the supplement of paper PMC10307832.
# Compound: C[C@]1(c2nc3c(C(N)=O)cccc3[nH]2)CCCN1 [Veliparib] + CC(=O)Nc1cccc(-n2c(=O)n(C3CC3)c(=O)c3c(Nc4ccc(I)cc4F)n(C)c(=O)c(C)c32)c1 [Trametinib] (partner 0.02 µM)
# Assay: relative viability (nuclei count vs DMSO), 5 days (fraction); higher = more cells survive
# Settings: first compound 2 µM
# How it was run: (§1)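 Nuclei were stained with Hoechst during a one-step fixation (final 0.05% Triton X-100, 1% formaldehyde, 1 ug/ml Hoechst) carried out 5 days after dosing, then counted on 4× images. The cells, lung cancer lines in 1536-well plates, had been dosed by pin tool the day after seeding with one drug alone or a fixed anchor-drug dose plus five library-drug doses (not always all listed) in √10 steps. Relative viability is the nuclei count in treated wells divided by that in vehicle wells, and each value is the median of duplicate plates.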
row,Cell Line,relative viability
1,HCC-366,0.42

# Compound: C[C@]1(c2nc3c(C(N)=O)cccc3[nH]2)CCCN1 [Veliparib] + C[C@]1(O)C[C@@H](c2nc(-c3ccc4ccc(-c5ccccc5)nc4c3)c3c(N)nccn32)C1 [Linsitinib] (partner 1 µM)
# Assay: as above
# Settings: first compound 0.02 µM
# How it was run: as §1
row,Cell Line,relative viability
1,LU99A,0.579
2,NCI-H1975,0.933
3,H3255,0.882
4,NCI-H2023,0.712
5,SK-LU-1,1.2
6,NCI-H1734,0.925
7,NCI-H1437,1.01
8,NCI-H596,1
9,HCC-15,0.928
10,EMC-BAC-2,0.841
11,IA-LM,0.411
12,NCI-H2009,1.27
13,COR-L 105,0.984
14,NCI-H520,0.984
15,HCC-78,0.612
16,EKVX,0.948
17,EBC-1,0.771
18,NCI-H1299,0.905
19,LK-2,0.689
20,PC-14,1.02
21,LXF-289,0.93
22,A549,0.62
23,NCI-H1563,1.23
24,NCI-H1703,0.17
25,Calu-6,0.582
26,HCC-366,0.511

# Same assay, conditions: first compound 0.06325 µM
row,Cell Line,relative viability
1,LU99A,0.61
2,NCI-H1975,0.951
3,H3255,0.981
4,NCI-H2023,0.692
5,NCI-H2405,0.938
6,SK-LU-1,1.01
7,NCI-H1734,0.85
8,NCI-H1437,1.04
9,ABC-1,0.767
10,NCI-H596,1.02
11,HCC-15,0.84
12,NCI-H460,0.806
13,EMC-BAC-2,0.801
14,IA-LM,0.494
15,NCI-H2009,1.17
16,COR-L 105,0.86
17,NCI-H1395,0.987

row,Cell Line,relative viability
1,NCI-H520,1.03
2,NCI-H358,0.815
3,HCC-78,0.53
4,EKVX,0.912
5,EBC-1,0.807
6,NCI-H1299,0.931
7,EPLC-272H,1.11
8,LK-2,0.592
9,PC-14,0.915
10,LXF-289,0.955
11,LC-2-ad,0.83
12,A549,0.576
13,NCI-H1563,1.07
14,NCI-H1703,0.63
15,Calu-6,0.826
16,HCC-366,0.623

# Same assay, conditions: first compound 0.2 µM
row,Cell Line,relative viability
1,LU99A,0.565
2,NCI-H1975,1.03
3,H3255,0.953
4,NCI-H2023,0.677
5,NCI-H2405,1.01
6,SK-LU-1,1.17
7,NCI-H1734,0.917
8,NCI-H1437,1.02
9,ABC-1,0.807
10,NCI-H596,1.07
11,HCC-15,0.909
12,NCI-H460,0.664
13,EMC-BAC-2,0.886
14,IA-LM,0.538
15,NCI-H2009,1.16
16,COR-L 105,0.982
17,NCI-H1395,0.853

row,Cell Line,relative viability
1,NCI-H520,0.966
2,NCI-H358,0.775
3,HCC-78,0.592
4,EKVX,0.952
5,EBC-1,0.723
6,NCI-H1299,0.921
7,EPLC-272H,1.18
8,LK-2,0.476
9,PC-14,0.953
10,LXF-289,0.954
11,LC-2-ad,0.787
12,A549,0.591
13,NCI-H1563,1.27
14,NCI-H1703,1.22
15,Calu-6,0.999
16,HCC-366,0.536

# Same assay, conditions: first compound 0.6325 µM
row,Cell Line,relative viability
1,LU99A,0.475
2,NCI-H1975,0.88
3,H3255,0.833
4,NCI-H2023,0.538
5,NCI-H2405,0.923
6,SK-LU-1,1.06
7,NCI-H1734,0.805
8,NCI-H1437,1.03
9,ABC-1,0.759
10,NCI-H596,0.893
11,HCC-15,0.83
12,NCI-H460,0.527
13,EMC-BAC-2,0.793
14,IA-LM,0.544
15,NCI-H2009,1.14
16,COR-L 105,0.915
17,NCI-H1395,0.745

row,Cell Line,relative viability
1,NCI-H520,0.922
2,NCI-H358,0.667
3,HCC-78,0.36
4,EKVX,0.86
5,EBC-1,0.793
6,NCI-H1299,0.898
7,EPLC-272H,1.08
8,LK-2,0.558
9,PC-14,0.86
10,LXF-289,0.922
11,LC-2-ad,0.819
12,A549,0.626
13,NCI-H1563,1.12
14,NCI-H1703,0.604
15,Calu-6,0.963
16,HCC-366,0.572

# Same assay, conditions: first compound 2 µM
row,Cell Line,relative viability
1,LU99A,0.525
2,NCI-H1975,0.931
3,H3255,0.981
4,NCI-H2023,0.658
5,NCI-H2405,0.885
6,SK-LU-1,1.17
7,NCI-H1734,0.928
8,NCI-H1437,1.08
9,ABC-1,0.892
10,NCI-H596,0.99
11,HCC-15,0.921
12,NCI-H460,0.72
13,EMC-BAC-2,0.828
14,IA-LM,0.708
15,NCI-H2009,1.22
16,COR-L 105,0.915
17,NCI-H1395,0.716

row,Cell Line,relative viability
1,NCI-H520,1.04
2,NCI-H358,0.772
3,HCC-78,0.541
4,EKVX,1.02
5,EBC-1,0.97
6,NCI-H1299,0.988
7,EPLC-272H,1.24
8,LK-2,0.548
9,PC-14,0.926
10,LXF-289,0.925
11,LC-2-ad,0.786
12,A549,0.586
13,NCI-H1563,1.12
14,NCI-H1703,0.974
15,Calu-6,0.987
16,HCC-366,0.574

# Compound: C[C@]1(c2nc3c(C(N)=O)cccc3[nH]2)CCCN1 [Veliparib] + CCNC(=O)c1noc(-c2cc(C(C)C)c(O)cc2O)c1-c1ccc(CN2CCOCC2)cc1 [Luminespib] (partner 0.01 µM)
# Assay: as above
# Settings: first compound 0.02 µM
# How it was run: as §1
row,Cell Line,relative viability
1,NCI-H2342,0.687
2,LU99A,0.284
3,NCI-H1975,0.118
4,H3255,0.698
5,NCI-H2023,0.746
6,NCI-H2405,0.695
7,SK-LU-1,0.227
8,NCI-H1734,0.197
9,NCI-H1437,0.978
10,NCI-H596,0.975
11,HCC-15,0.302
12,NCI-H460,0.0408
13,EMC-BAC-2,1.24
14,NCI-H2009,1.03
15,COR-L 105,0.794
16,NCI-H1395,0.586
17,NCI-H520,0.224
18,NCI-H358,0.308
19,EKVX,0.82
20,EPLC-272H,0.264
21,LXF-289,0.652
22,NCI-H522,1.18
23,NCI-H1563,0.484
24,ChaGo-K-1,0.44
25,NCI-H2170,0.681

# Same assay, conditions: first compound 0.06325 µM
row,Cell Line,relative viability
1,NCI-H2342,0.729
2,NCI-H1623,0.467
3,LU99A,0.25
4,NCI-H1975,0.233
5,H3255,0.717
6,NCI-H2023,0.738
7,NCI-H2405,0.609
8,SK-LU-1,0.195
9,NCI-H1734,0.209
10,NCI-H1437,1.1
11,ABC-1,0.543
12,NCI-H596,1.02
13,HCC-15,0.314
14,NCI-H460,0.0256
15,EMC-BAC-2,1.09
16,NCI-H2009,0.96

row,Cell Line,relative viability
1,COR-L 105,0.743
2,NCI-H1395,0.624
3,NCI-H520,0.239
4,NCI-H358,0.975
5,EKVX,0.835
6,NCI-H1650,0.216
7,EPLC-272H,0.526
8,LK-2,0.184
9,PC-14,0.147
10,LXF-289,0.712
11,LC-2-ad,0.947
12,NCI-H522,1.21
13,NCI-H1563,0.536
14,ChaGo-K-1,0.655
15,NCI-H2170,0.865

# Same assay, conditions: first compound 0.2 µM
row,Cell Line,relative viability
1,NCI-H2342,0.594
2,NCI-H1623,0.596
3,LU99A,0.191
4,NCI-H1975,0.142
5,H3255,0.778
6,NCI-H2023,0.696
7,NCI-H2405,0.771
8,SK-LU-1,0.232
9,NCI-H1734,0.211
10,NCI-H1437,1.07
11,ABC-1,0.377
12,NCI-H596,1.17
13,HCC-15,0.252
14,NCI-H460,0.0384
15,EMC-BAC-2,1.28
16,NCI-H2009,1.05

row,Cell Line,relative viability
1,COR-L 105,0.831
2,NCI-H1395,0.648
3,NCI-H520,0.221
4,NCI-H358,0.248
5,EKVX,0.89
6,NCI-H1650,0.194
7,EPLC-272H,0.485
8,LK-2,0.202
9,PC-14,0.198
10,LXF-289,0.759
11,LC-2-ad,1.04
12,SW 900,0.204
13,NCI-H522,1.16
14,NCI-H1563,0.526
15,ChaGo-K-1,0.648
16,NCI-H2170,0.719

# Same assay, conditions: first compound 0.6325 µM
row,Cell Line,relative viability
1,NCI-H2342,0.972
2,NCI-H1623,0.434
3,LU99A,0.228
4,NCI-H1975,0.31
5,H3255,0.894
6,NCI-H2023,0.73
7,NCI-H2405,0.666
8,SK-LU-1,0.199
9,NCI-H1734,0.232
10,NCI-H1437,1.1
11,ABC-1,0.422
12,NCI-H596,0.889
13,HCC-15,0.191
14,NCI-H460,0.0245
15,EMC-BAC-2,1.12
16,NCI-H2009,1.05

row,Cell Line,relative viability
1,COR-L 105,0.59
2,NCI-H1395,0.659
3,NCI-H520,0.205
4,NCI-H358,0.246
5,EKVX,0.812
6,NCI-H1650,0.199
7,EPLC-272H,0.0856
8,LK-2,0.19
9,PC-14,0.151
10,LXF-289,0.545
11,LC-2-ad,0.982
12,SW 900,0.19
13,NCI-H522,1.18
14,NCI-H1563,0.49
15,ChaGo-K-1,0.525
16,NCI-H2170,0.732

# Same assay, conditions: first compound 2 µM
row,Cell Line,relative viability
1,NCI-H2342,0.666
2,NCI-H1623,0.409
3,LU99A,0.237
4,NCI-H1975,0.18
5,H3255,0.813
6,NCI-H2023,0.73
7,NCI-H2405,0.711
8,SK-LU-1,0.22
9,NCI-H1734,0.233
10,NCI-H1437,1.09
11,ABC-1,0.524
12,NCI-H596,0.919
13,HCC-15,0.334
14,NCI-H460,0.0352
15,EMC-BAC-2,1.21
16,NCI-H2009,1.13

row,Cell Line,relative viability
1,COR-L 105,0.851
2,NCI-H1395,0.542
3,NCI-H520,0.247
4,NCI-H358,0.548
5,EKVX,0.827
6,NCI-H1650,0.217
7,EPLC-272H,0.179
8,LK-2,0.193
9,PC-14,0.145
10,LXF-289,0.601
11,LC-2-ad,1.03
12,SW 900,0.118
13,NCI-H522,1.25
14,NCI-H1563,0.535
15,ChaGo-K-1,0.596
16,NCI-H2170,0.6
